This is an account of results in ChEMBL document CHEMBL5036363, “Discovery and Lead Optimization of Benzene-1,4-disulfonamides as Oxidative Phosphorylation Inhibitors” (J Med Chem, 2022).

Usually IC50 stands for the concentration that gives 50% inhibition.

Common to all, as to format: functional, cell-based
In test [1] the test system is BXPC-3. The experiment in a line: Cytotoxicity against human BXPC-3 cells assessed as inhibition of cell growth incubated for 7 days in glucose-containing medium by MTT assay. The following applies: BXPC-3, 168 h. In general terms: Tetrazolium assays rely on reduction of a dye to a coloured formazan, in cell work by metabolically active cells.
For test [2], the system named is MIA PaCa-2. The experiment in a line: Cytotoxicity against human MIA PaCa-2 cells assessed as inhibition of cell growth incubated for 3 days in galactose-containing medium by MTT assay. The following applies: MIA PaCa-2, 72 h.
Test [3] concerns MIA PaCa-2. The experiment in a line: Cytotoxicity against human MIA PaCa-2 cells assessed as inhibition of cell growth incubated for 3 days in glucose-containing medium by MTT assay. The conditions noted are these: MIA PaCa-2, 72 h.
For test [4], the system named is MIA PaCa-2. Put plainly: Cytotoxicity against human MIA PaCa-2 cells assessed as inhibition of cell growth incubated for 7 days in glucose-containing medium by MTT assay. The conditions noted are these: MIA PaCa-2, 168 h.

In the case of `CCNS(=O)(=O)c1ccc(S(=O)(=O)N2CCC[C@@H](C(=O)N3CCN(c4nc(C(C)C)no4)CC3)C2)cc1`, the IC50 is 6900 nM in test [1], over 10000 nM in test [2], 200 nM in test [3] and 3300 nM in test [4].

Turning to `CCOC(=O)[C@@H]1CCCN(S(=O)(=O)c2ccc(S(=N)(=O)N(CC)CC)cc2)C1` (stereo partly drawn), the IC50 in test [1] is 3600 nM; in test [2], over 10000 nM; in test [3] it was 900 nM; in test [4] it was 2600 nM.

As for `CCN1CC(NC(=O)[C@@H]2CCCN(S(=O)(=O)c3ccc(S(=O)(=O)N(CC)CC)cc3)C2)C1`, the IC50 in test [1] was over 30000 nM; in test [2], over 10000 nM; in test [3], over 10000 nM; in test [4] it was over 30000 nM.

Consider `CCN(CC)S(=O)(=O)c1ccc(S(=O)(=O)N2CCC[C@@H](C(=O)N3CCN(c4nnc(C(C)C)o4)CC3)C2)cc1`, for which the results for the IC50 in test [2], in test [3] and in test [4] were over 10000 nM, 1000 nM and 1800 nM, respectively.

With `CCOC(=O)[C@@H]1CCCN(S(=O)(=O)c2ccc(S(=O)(=O)N(C)Cc3ccccc3)cc2)C1`, the IC50 in test [1] and in test [4] was over 30000 nM throughout.

Turning to `CCOC(=O)N1CCC[C@@H](S(=O)(=O)c2ccc(S(=O)(=O)N(CC)CC)cc2)C1`, the IC50 is over 30000 nM in test [1], over 10000 nM in test [2], over 10000 nM in test [3] and over 30000 nM in test [4].

Consider `CCN(CC)S(=O)(=O)c1ccc(S(=O)(=O)N2CCC[C@@H](C(=O)N[C@@H]3CCN(C(=O)OC(C)(C)C)C3)C2)cc1`, for which the IC50 was 400 nM in test [1], over 10000 nM in test [2], 500 nM in test [3] and 200 nM in test [4].

Regarding `CCN(CC)S(=O)(=O)c1ccc(S(=O)(=O)N2CCC[C@@H](C(=O)NC3CN(C(=O)NC(C)(C)C)C3)C2)cc1`, the IC50 in test [1] was 10100 nM; in test [2], over 10000 nM; in test [3] it was 1400 nM; in test [4], 3400 nM.

In the case of `CCOC(=O)[C@@H]1CCC[C@H](S(=O)(=O)c2ccc(S(=O)(=O)N(CC)CC)cc2)C1` (relative stereo), the IC50 was 25200 nM in test [1], over 10000 nM in test [2], over 10000 nM in test [3] and 21500 nM in test [4].

`CCOC(=O)[C@@H]1CCCN(S(=O)(=O)c2ccc(S(=O)(=O)N(CC)CC)nc2)C1`: the IC50 in test [1] is 8000 nM; in test [2], over 10000 nM; in test [3] it was 1600 nM; in test [4], 5600 nM.

On to `CCOC(=O)[C@@H]1C[C@H](O)CN(S(=O)(=O)c2ccc(S(=O)(=O)N(CC)CC)cc2)C1` (relative stereo), for which the IC50 was 3300 nM in test [1], over 10000 nM in test [2], 300 nM in test [3] and 1300 nM in test [4].

Consider `CCOC(=O)[C@H]1CCN(S(=O)(=O)c2ccc(S(=O)(=O)N(CC)CC)cc2)C1`, for which the 50% inhibitory concentration (IC50) in test [1] was 29300 nM; in test [2], over 10000 nM; in test [3] it was over 10000 nM; in test [4], 29200 nM.

On to `CCN(CC)S(=O)(=O)c1ccc(S(=O)(=O)N2CCC[C@@H](C(=O)N3CC4(CN(C(=O)OC(C)(C)C)C4)C3)C2)cc1`, for which the IC50 in test [1] is 1100 nM; in test [2], over 10000 nM; in test [3] it was 300 nM; in test [4] it was 400 nM.

For `CCOC(=O)[C@@H]1CCC[C@@H](S(=O)(=O)c2ccc(S(=O)(=O)N(CC)CC)cc2)C1` (relative stereo), the 50% inhibitory concentration (IC50) is 18500 nM in test [1], over 10000 nM in test [2], 5000 nM in test [3] and 16400 nM in test [4].

As for `CCN(CC)S(=O)(=O)c1ccc(S(=O)(=O)N2CCC[C@@H](C(=O)N3CCN(c4nc(C)no4)CC3)C2)cc1`, the IC50 was over 10000 nM in test [2], 200 nM in test [3] and 250 nM in test [4].

Turning to `CCOC(=O)[C@@H]1CCCN(S(=O)(=O)c2ccc(S(=O)(=O)N(CC)CC)cn2)C1`, the IC50 is 1400 nM in test [1], over 10000 nM in test [2], 300 nM in test [3] and 1300 nM in test [4].

In the case of `CCCN(CC)S(=O)(=O)c1ccc(S(=O)(=O)N2CCC[C@@H](C(=O)OCC)C2)cc1`, the IC50 in test [1] and in test [4] was 300 nM in each case.

For the molecule `CCN(CC)C(=O)[C@@H]1CCCN(S(=O)(=O)c2ccc(S(=O)(=O)N(CC)CC)cc2)C1`, the IC50 in test [1] was 10500 nM; in test [2], over 10000 nM; in test [3] it was 700 nM; in test [4] it was 6400 nM.

Take `CCOC(=O)C1CN(S(=O)(=O)c2ccc(S(=O)(=O)N(CC)CC)cc2)C1`: the IC50 in test [1] is 12700 nM; in test [2], over 10000 nM; in test [3] it was 800 nM; in test [4], 13900 nM.

In the case of `CCN(CC)S(=O)(=O)c1ccc(S(=O)(=O)N2CCC[C@@H](C(=O)NC3CN(S(C)(=O)=O)C3)C2)cc1`, the figures for the IC50 in test [1] and in test [4] were 7400 nM and 2500 nM, respectively.

Regarding `CCN(CC)S(=O)(=O)c1ccc(S(=O)(=O)N2CCC[C@@H](C(=O)N[C@H]3CCN(C(=O)OC(C)(C)C)C3)C2)cc1`, the IC50 in test [1] is 300 nM; in test [2] it was over 10000 nM; in test [3], 170 nM; in test [4], 100 nM.

Take `CCOC(=O)[C@@H]1CCCN(C(=O)c2ccc(S(=O)(=O)N(CC)CC)cc2)C1`: the IC50 is over 10000 nM in test [1], over 10000 nM in test [2], over 3000 nM in test [3] and over 10000 nM in test [4].

Take `CCN(CC)S(=O)(=O)c1ccc(S(=O)(=O)N2CCC[C@@H](C(=O)NC)C2)cc1`: the IC50 in test [1] is 13800 nM; in test [2], over 10000 nM; in test [3], 2000 nM; in test [4] it was 8600 nM.

As to `CCOC(=O)[C@@H]1C[C@@H](O)CN(S(=O)(=O)c2ccc(S(=O)(=O)N(CC)CC)cc2)C1` (relative stereo), the IC50 was 10800 nM in test [1], over 10000 nM in test [2], 2100 nM in test [3] and 7900 nM in test [4].

In the case of `CC(C)c1noc(N2CCN(C(=O)[C@@H]3CCCN(S(=O)(=O)c4ccc(S(=O)(=O)NC5CCC5)cc4)C3)CC2)n1`, the IC50 in test [1] is 3300 nM; in test [2], over 10000 nM; in test [3], 200 nM; in test [4], 600 nM.

In the case of `CCOC(=O)[C@@H]1CCCN(S(=O)(=O)c2ccc(S(=O)(=O)N(CC)CC)cc2C)C1`, the IC50 is 5600 nM in test [1], over 10000 nM in test [2], 1200 nM in test [3] and 5100 nM in test [4].

`CC(C)c1noc(N2CCN(C(=O)[C@@H]3CCCN(S(=O)(=O)c4ccc(S(=O)(=O)NC5CC5)cc4)C3)CC2)n1`: the IC50 was 6700 nM in test [1], over 10000 nM in test [2], 300 nM in test [3] and 1000 nM in test [4].

As to `CCOC(=O)[C@@H]1CCCN(S(=O)(=O)c2cccc(S(=O)(=O)N(CC)CC)c2)C1`, the concentration for half-maximal inhibition (IC50) in test [1] was over 30000 nM; in test [2], over 10000 nM; in test [3], over 10000 nM; in test [4], over 30000 nM.

Take `CC(C)c1noc(N2CCN(C(=O)[C@@H]3CCCN(S(=O)(=O)c4ccc(S(=O)(=O)NC(C)(C)C)cc4)C3)CC2)n1`: the concentration for half-maximal inhibition (IC50) in test [1] was 2600 nM; in test [2] it was over 10000 nM; in test [3], 100 nM; in test [4], 300 nM.

With `CCOC(=O)[C@@H]1CCCN(S(=O)(=O)c2ccc(S(=O)(=O)N(CC)C(C)C)cc2)C1`, the IC50 was 1600 nM in test [1], over 10000 nM in test [2], 1200 nM in test [3] and 1000 nM in test [4].

Consider `CCOC(=O)[C@@H]1CCCN(S(=O)(=O)c2ccc(C(=O)N(CC)CC)cc2)C1`, for which the IC50 in test [1] is 640 nM; in test [2], over 10000 nM; in test [3], 100 nM; in test [4], 800 nM.

As to `CCN(CC)S(=O)(=O)c1ccc(S(=O)(=O)N2CCC[C@@H](C(=O)NC3CC3)C2)cc1`, the IC50 was over 10000 nM in test [2], 1100 nM in test [3] and 4600 nM in test [4].

As to `CCN(CC)S(=O)(=O)c1ccc(S(=O)(=O)N2CCC[C@@H](C(=O)N3CC4(CCN(C(=O)OC(C)(C)C)C4)C3)C2)cc1`, the IC50 in test [1] was 900 nM; in test [2] it was over 10000 nM; in test [3], 1300 nM; in test [4] it was 190 nM.

On to `CCN(CC)S(=O)(=O)c1ccc(S(=O)(=O)N2CCC[C@@H](C(=O)N3CCC(c4nc(C(C)C)no4)CC3)C2)cc1`, for which the IC50 is 300 nM in test [1], over 10000 nM in test [2], 30 nM in test [3] and 40 nM in test [4].

Turning to `CCCN(CCC)S(=O)(=O)c1ccc(S(=O)(=O)N2CCC[C@@H](C(=O)OCC)C2)cc1`, the 50% inhibitory concentration (IC50) in test [1] is 2500 nM; in test [2], over 10000 nM; in test [3] it was 600 nM; in test [4] it was 2300 nM.

Turning to `CCOC(=O)[C@@H]1CCCN(S(=O)(=O)c2ccc(S(=O)(=O)N3CCCCC3)cc2)C1`, the IC50 in test [1] is 3300 nM; in test [2], over 10000 nM; in test [3], 1000 nM; in test [4], 2900 nM.

Take `CCOC(=O)N1CCC[C@H](S(=O)(=O)c2ccc(S(=O)(=O)N(CC)CC)cc2)C1`: the concentration for half-maximal inhibition (IC50) in test [1] was over 30000 nM; in test [2] it was over 10000 nM; in test [3] it was over 10000 nM; in test [4], over 30000 nM.

For the molecule `CCOC(=O)[C@@H]1CCCN(S(=O)(=O)c2ccc(S(=O)(=O)N3CCNCC3)cc2)C1`, the concentration for half-maximal inhibition (IC50) in test [1] and in test [4] was over 30000 nM each time.

`CCN(CC)S(=O)(=O)c1ccc(S(=O)(=O)N2CCC[C@@H](C(=O)N3CCN(c4nc(C(F)(F)F)no4)CC3)C2)cc1`: the IC50 in test [2] is over 10000 nM; in test [3] it was 60 nM; in test [4] it was 600 nM.

Turning to `CCOC(=O)C1CCN(S(=O)(=O)c2ccc(S(=O)(=O)N(CC)CC)cc2)CC1`, the IC50 in test [1] was determined as 23100 nM; in test [4], 27200 nM.

Consider `CCN(CC)S(=O)(=O)c1ccc(S(=O)(=O)N2CCC[C@@H](C(=O)NC3CCN(C(=O)OC(C)(C)C)CC3)C2)cc1`, for which the IC50 in test [1] was found to be 300 nM; in test [4], 100 nM.
